Source: patent US10167299B2, “1-(3-aminopropyl) substituted cyclic amine compounds, preparation method therefor, and pharmaceutical compositions and uses thereof” (SHANGHAI INSTITUTE OF MATERIA MEDICA, CHINESE ACADEMY OF …, priority 2013, dated 2019)
In brackets after ≈: the same amount, converted by molar mass.

Legend:
[1] = test system: HIV-1SF162 virus strain; assay: Inhibition activity on TZM-bl cells infected with HIV-1SF162; conditions: for EC50: Human immunodeficiency virus 1, TZM-bl; for therapeutic index (TI): TZM-bl cells infected with HIV-1SF162; for cytotoxicity in vitro and therapeutic index in words, versus positive control compound: TZM-bl cells infected with HIV-1SF162, conclusion from Table 3
[2] = test system: HIV-1Ba-L virus strain; assay: Inhibition of viral replication in HOS-CD4-CCR5 cells infected with HIV-1Ba-L; format: cell-based; conditions: Human immunodeficiency virus 1, HOS-CD4-CCR5
Procedure: (§1) On the day before the test, 1×10^5/ml of HOS-CD4-CCR5 cells were inoculated in 96-well plates with 100 μl for each well. The compound to be tested was subject to 5-fold dilution in 96-well microtiter plate with DMEM complete medium (containing 10% FBS). The starting concentration was 1 μM and six dilutions were obtained. Triplicate wells were set for each dilution and each well contained 100 μl mixture. While wells not containing drugs were set as control. The supernatant was removed and 100 μl of drug was added and incubated for 2 h. Then 100 μl of HIV-1SF162 and HIV-1Ba-L were added to dilute supernatant. The cells were infected for 1 h, free virus was washed out and drug with the same final concentration was added. MVC was used as positive control. The cells were cultured at 37° C. with 5% CO2 for three days. The supernatant was collected, lysed and inactivated with 0.5% Triton X-100. The inhibition effect of drug on HIV-1 replication was detected using p24 antigen capture ELISA method.

[3] = Toxicity test of compounds on PBMC cells (MTT); format: cell-based; conditions: human; PBMC cells (Table 4)
Procedure: (§2) The compound to be tested was subject to 5-fold dilution in a 96-well microtiter plate with RPMI-1640 or DMEM complete medium (containing 10% FBS) (Six dilution) triplicate for each dilution and 100 μl for each well. While wells not containing drugs were set as control. Into each well was added 100 μl of 4×10^5/ml PM1, HOS-CD4-CCR5 cells or 100 μl of 5×10^6/ml PHA stimulated PBMC. The cells were cultured at 37° C. with 5% CO2 for three days (PBMC cells were cultured for seven days and 100 μl of fresh RPMI-1640 complete medium was supplemented on the third day). Cytotoxicity was tested with MTT assay. OD values were measured by ELx800 microplate reader. The detection wavelength was 570 nm, and the reference wavelength was 630 nm.

[4] = test system: HIV-1Ba-L virus strain; assay: Inhibition of viral replication in PBMC infected with HIV-1Ba-L; format: cell-based; conditions: for EC50: Human immunodeficiency virus 1, PBMC; for therapeutic index (TI): PBMC cells infected with HIV-1Ba-L
Procedure: (§3) The virus was titrated according to the modified method of Johnson & Byington. Briefly, the HIV-1 stock solution was subject to four-fold dilution in a 96-well plate (ten gradients) sextuplicate for each gradient, while setting six control-wells. Into each well was added 100 μl (5×10^6/ml) PHA-stimulated PBMC cells and final volume per well was 200 μl. The cells were cultured at 37° C. with 5% CO2. On the third day, 100 μl of fresh RPMI-1640 complete medium was supplemented. On the seventh day, the infected supernatant was collected and lysed with 0.5% Triton X100. The p24 antigen was detected by ELISA and TCID50 of virus was calculated according to Reed & Muench method (50% Tissue culture infection dose).
(§4) The compound to be tested was subject to 5-fold dilution in 48-well plate with RPMI-1640 complete medium (containing 10% FBS). The starting concentration was 1 μM, six dilutions were obtained, and each well contained 200 μl mixture. While wells not containing drugs were set as control. Virus (MOI=0.01) was added to 5×10^6/ml of PBMC cells which have been stimulated by PHA for 72 h. After homogeneously mixed, the mixture was immediately added to 48-well plate containing diluted drug and each well was added with 200 μl of mixture. MVC was used as positive control. The cells were cultured at 37° C. with 5% CO2 for seven days (drug with the same concentration was added on the third day). The supernatant was collected, lysed and inactivated with 0.5% Triton X-100. The inhibition effect of drug on HIV-1 replication was detected using p24 antigen capture ELISA method.

[5] = test system: HIV-1SF162 virus strain; assay: Inhibition of viral replication in HOS-CD4-CCR5 cells infected with HIV-1SF162; format: cell-based; conditions: for EC50: Human immunodeficiency virus 1, HOS-CD4-CCR5
Procedure: as §1

[6] = test system: HIV-1KM018 virus strain; assay: Inhibition of viral replication in PBMC infected with HIV-1KM018; format: cell-based; conditions: for EC50: Human immunodeficiency virus 1, PBMC; for therapeutic index (TI): PBMC cells infected with HIV-1KM018
Procedure: as §3, with “On the third day, 100 μl of fresh RPMI-1640 complete medium was supplemented.” left out
as §4, with “The” for “The compound to be tested was subject to 5-fold dilution in 48-well plate with RPMI-1640 complete medium (containing 10% FBS). The”, “Virus (MOI=0.01) was added to 5×10^6/ml of PBMC cells which have been stimulated by PHA for 72 h.” left out

[7] = test system: HIV-1SF162 virus strain; assay: Inhibition of viral replication in PBMC infected with HIV-1SF162; format: cell-based; conditions: for EC50: Human immunodeficiency virus 1, PBMC; for therapeutic index (TI): PBMC cells infected with HIV-1SF162
Procedure: as §3, with “On the third day, 100 μl of fresh RPMI-1640 complete medium was supplemented.” left out
as §4, with “The” for “The compound to be tested was subject to 5-fold dilution in 48-well plate with RPMI-1640 complete medium (containing 10% FBS). The”, “Virus (MOI=0.01) was added to 5×10^6/ml of PBMC cells which have been stimulated by PHA for 72 h.” left out

[8] = Cytotoxicity (CC50) in TZM-bl cells; format: cell-based; conditions: human; TZM-bl cells (Table 3); read-out: CC50
[9] = Toxicity test of compounds on HOS-CD4-CCR5 cells (MTT); format: cell-based; conditions: human; HOS-CD4+-CCR5 cells (Table 7)
Procedure: as §2

[10] = in vivo; conditions: male, rat

Compound | EC50 [1] [µg/mL] | therapeutic index (TI) [1] | cytotoxicity in vitro and therapeutic index in words, versus positive control compound [1] | EC50 [2] [µg/mL] | CC50 at 7 days [3] [µg/mL] | EC50 [4] [µg/mL] | therapeutic index (TI) [4] | EC50 [5] [µg/mL] | EC50 [6] [µg/mL] | therapeutic index (TI) [6] | EC50 [7] [µg/mL] | therapeutic index (TI) [7] | CC50 [8] [µg/mL] | CC50 at 3 days [9] [µg/mL] | bioavailability [10] [%] | AUC(0-t) ([10]; 10 mg/kg) [ng·h/mL] | AUC(0-inf) ([10]; iv, 10 mg/kg) [ng·h/mL] | AUC(0-t) ([10]; iv, 10 mg/kg) [ng·h/mL] | Cmax ([10]; iv, 10 mg/kg) [ng/mL] | MRT ([10]; iv, 10 mg/kg) [h] | further results
Cc1nnc(C(C)C)n1C1CC2CCC(C1)N2CC[C@H](NC(=O)C1CCCCC1)c1cccs1 (some centres unmarked) [Compound 16] | 0.0118 (≈ 0.0244 µM) | >16963.53 | comparable with the positive control compound | 0.0105 (≈ 0.0216 µM) | 267 (≈ 552 µM) | 0.365 (≈ 0.754 µM) | 1301.1 | 0.0427 (≈ 0.0882 µM) | 0.555 (≈ 1.15 µM) | 481.1 | 0.455 (≈ 0.941 µM) | 586.3 | > 200 | 343 (≈ 709 µM) | 14.8 | 5110 | 5110 | 5110 | 4320 | 0.79 | therapeutic index (TI) ([5]; HOS-CD4+-CCR5 cells infected with HIV-1SF162): 8042; Tmax ([10]; iv, 10 mg/kg): 0.25 h; half-life ([10]; iv, 10 mg/kg): 0.31 h; AUC(0-inf) ([10]; po, 20 mg/kg): 1510 ng·h/mL; AUC(0-t) ([10]; po, 20 mg/kg): 1510 ng·h/mL; Cmax ([10]; po, 20 mg/kg): 631 ng/mL; MRT ([10]; po, 20 mg/kg): 2.11 h; Tmax ([10]; po, 20 mg/kg): 0.25 h; bioavailability ([10]; po, 20 mg/kg): 14.8%; half-life ([10]; po, 20 mg/kg): 1.16 h
Cc1nnc(C(C)C)n1C1CC2CCC(C1)N2CC[C@H](NC(=O)C1CCCC1)c1cccs1 (stereo partly drawn) [Compound 18, N-[(1S)-3-[exo-3-(3-isopropyl-5-methyl-4H-1,2,4-triazol-4-yl)-8-azabicyclo[3.2.1]octane-8-yl]-1-(thiophen-2-yl)propyl]cyclopentane-1-carboxamide] | 0.00123 (≈ 0.00262 µM) | >162601.63 | better than positive control compound | 0.0034 (≈ 0.00724 µM) | 345 (≈ 735 µM) | 0.289 (≈ 0.616 µM) | 2266.5 | 0.0203 (≈ 0.0432 µM) | 0.0699 (≈ 0.149 µM) | 4935.2 | 0.0927 (≈ 0.197 µM) | 3721 | > 200 | 507 (≈ 1080 µM) | 90.5 | 1550 | 1600 | 1550 | 771 | 1.98 | Tmax ([10]; iv, 10 mg/kg): 0.25 h; half-life ([10]; iv, 10 mg/kg): 1.81 h; AUC(0-inf) ([10]; po, 20 mg/kg): 3070 ng·h/mL; AUC(0-t) ([10]; po, 20 mg/kg): 2800 ng·h/mL; Cmax ([10]; po, 20 mg/kg): 690 ng/mL; MRT ([10]; po, 20 mg/kg): 2.94 h; Tmax ([10]; po, 20 mg/kg): 2 h; bioavailability ([10]; po, 20 mg/kg): 90.5%; half-life ([10]; po, 20 mg/kg): 2.05 h
